According to patent US8759363B2, “Quinazoline-based T cell proliferation inhibitors” (Yissum Research Development Company of the Hebrew …, priority 2010, dated 2014):

Tests used:
[1] = system: Jurkat cells; assay: Jurkat cell proliferation, BrdU incorporation; assay type: cell-based, human; conditions: Homo sapiens, Jurkat, BrdU uptake; nM ± SD; read-out: IC50 Jurkat cells proliferation inhibition
Procedure: (§1) Cells were depleted of fetal calf serum (FCS) for 12 hours. They were then stimulated to proliferate by addition of ConA (10 μg/ml) for PBMC from healthy individuals and for Jurkat cells, FCS (10%) for HEK293 and A375 cells, PDGF (30 ng/ml) for NIH 3T3 cells, and EGF (30 ng/ml) for MDA-MB-231, Cells (1×10^5) were cultured in 96-well plates for 3 days in the presence or absence of inhibitors at the concentrations specified in the text. Each condition was tested in duplicate wells.
(§2) Proliferation was assessed by BrdU incorporation using a colorimetric ELISA kit (Roche, Germany). Subsequent to labeling with 10 μM BrdU, DNA was denatured and the cells were incubated with anti-BrdU-POD, prior to the addition of colorimetric substrate (TMB). The reaction product was quantified by measuring absorbance at 450 nm in an ELISA plate reader (ELx800 BIO-TEK Instruments Inc.).
(§3) Since we were not prejudiced towards any specific protein kinase, we used a biological assay for T cell proliferation. We tested our libraries for inhibition of proliferation of PBMC and Jurkat cells (Table 3). Cell proliferation was measured by BrdU uptake. […] PBMC cells were stimulated by a non-specific T cell mitogen, Concanavalin A (ConA). All of the compounds that were tested inhibited proliferation at micromolar or sub-micromolar concentrations.

[2] = system: PBMC; assay: PBMC proliferation, BrdU incorporation; assay type: cell-based, human; conditions: Homo sapiens; ConA-stimulated PBMC, BrdU uptake; nM ± SD; read-out: IC50 PBMC proliferation inhibition
Procedure: Blood samples were taken from healthy donors and loaded on a Ficoll density gradient to purify the PBMC population. T cells were purified by human anti-CD3 using an autoMACS instrument (Miltenyi Biotec, Bergisch-Gladbach, Germany), according to the manufacturer's instructions. The identity of T cells was confirmed by flow cytometry, as they stained positive for CD3. Cells were stimulated with ConA (10 μg/ml), ODN2006 (0.5 μg/ml; Enzo Life Sciences), or LPS (50 μg/ml; Sigma-Aldrich, Steinheim, Germany), for 72 h in the presence of the inhibitor, and their proliferation was measured in the BrdU incorporation assay as will be later described.
as §1, §2, §3

[3] = system: OT2 (resting) cells; assay: MLR with resting control cells, resting OT2 cells; assay type: cell-based, mouse; conditions: 0.5 μM, 72 h MLR with IL-7; no inhibitor 1025
Excerpt: (§4) The aim of this test was to determine whether 2 affects only the proliferating cells or there is a general mechanism affecting all cell numbers. For this purpose we mixed 3 cell types: […]: BALB/c, 2C and OT1; […]: CB6F1, TEA and OT2. The OT1 and OT2 are splenocytes that were isolated from OT1 and OT2 mice (Jackson Laboratories, Bar Harbor, Me.),
(§5) Thus, the ability to monitor the fate of proliferation and resting cells by FACS was enabled due to the use of the MLR described above for CD4+ and CD8+ and the addition of OT2 and OT1 splenocytes, respectively.
(§6) Proliferating cells often secrete cytokines that induce survival of neighbouring cells; since the proliferation was expected to be inhibited we added 50 ng/ml of IL-7. This concentration is sufficient to keep the cells alive, but not to induce proliferation.
(§7) The number of TEA and OT2 cells that were treated with 0.5 μM 2 was 1452 and 826, respectively, while the number of 2C and OT1 cells that were treated with 0.5 μM 21 was 3003 and 903, respectively. This is depicted as a bar-graph in FIG. 9C.

[4] = system: 2C (stimulated) cells; assay: MLR with resting control cells, stimulated 2C cells; assay type: cell-based, mouse; conditions: 0.5 μM, 72 h MLR with IL-7; no inhibitor 3805
Excerpt: as §4, §5, §6
(§8) Irradiated Balb splenocytes were incubated for 72 h with 2C, and OT1 splenocytes in the presence of IL-7 W/O inhibitor.
(§9) The CD4+ and CD8+ were stimulated to proliferate, whereas in the absence of specific stimuli the OT1 and OT2 cell populations were resting, and theses cells were kept alive by the administration of IL-7. […] The number of 2C and OT1 cells that were treated with 0.5 μM 2 was 286 and 1148, respectively, while the number of 2C and OT1 cells that were treated with 0.5 μM 21 (control) was 4767 and 2468, respectively. This is depicted as a bar-graph in FIG. 8C.

[5] = system: OT1 (resting) cells; assay: MLR with resting control cells, resting OT1 cells; assay type: cell-based, mouse; conditions: 0.5 μM, 72 h MLR with IL-7; no inhibitor 2459
Excerpt: as §4, §5, §6, §8, §9

[6] = system: TEA (stimulated) cells; assay: MLR with resting control cells, stimulated TEA cells; assay type: cell-based, mouse; conditions: 0.5 μM, 72 h MLR with IL-7; no inhibitor 3850
Excerpt: as §4, §5, §6, §7

[7] = system: IL-2 secretion by 2C splenocytes stimulated by irradiated BALB/c splenocytes; assay: IL-2 levels in MLR supernatants; assay type: cell-based, mouse; conditions: 24, 48 and 72 h MLR; compound 2 up to 1 μM
Procedure: In the mixed lymphocyte reaction, stimulator cells cause responder cells to proliferate, owing to alloreactivity [Reich-Zeliger et al., 2004]. Splenocytes from 2c mice were stimulated by irradiated splenocytes from BALB/c mice in the presence of the evaluated compound at the concentrations specified. Cultures were incubated for 72 hours in 96-well plates.
Jurkat or PBMC cells were treated for 12 h with 1 μM, 0.5 μM or no inhibitor. Cells (1×10^6) were plated in 24-well plates (Nunc) and stimulated by C305 (dilution 1:500), anti-CD28 (1:100), PMA (50 ng/ml) or ionomycin (1 μM) for 12 h. Alternately, cells were stimulated for 24, 48 and 72 h in MLR. After stimulation cells were centrifuged at 130×g for 5 minutes at room temperature.
Supernatants were collected and IL-2 was assayed using the IL-2 ELISA kit (BioSource International USA, KH0022) according to the manufacturer's instructions. Absorbance was read at 450 nm in an ELISA plate reader (ELx800 BIO-TEK Instruments Inc.).
In vivo, T cells are stimulated by neighboring cells. In order to test the effect of 2 on cell-stimulated IL-2 secretion, the supernatants of splenocytes after 24, 48 and 72 h MLR were collected and analyzed for their IL-2 levels (FIG. 5C). […] At higher concentrations, no viable cells remained.

[8] = system: CD8+ (2C) and CD4+ (TEA) T cells; assay: MLR, double-positive CD8+1B2+ (2C) or CD4+/Va2+ (TEA) effector cells by FACS; assay type: cell-based, mouse; conditions: 72 h MLR
Excerpt: Mice used included male and female 6- to 12-week-old CB6/F1 mice, obtained from the Roscoe B. Jackson Memorial Laboratory (The Jackson Laboratory, Bar Harbor, Me., http://www.jax.org). A breeding pair of transgenic (Tg) H-2b mice expressing the T-cell antigen receptor (TCR) 1B2 from the CD8+ clone 2C with specificity for H-2Ld was kindly provided by Janko Nikolic-Zugic (Memorial Sloan-Kettering Cancer Center, New York, http://www.mskcc.org). A breeding pair of Tg H-2b mice expressing the TCR from the CD4+ clone known as TEA with specificity for I-Ead allopeptide, cross-presented by host APC and bound to I-Ab and was kindly provided by Alexander Y. Rudensky (University of Washington, Seattle). I-Ead allopeptide corresponds to the positions 52 to 68 from the alpha-chain of I-E class II molecules and is expressed in all APCs from H-2b/I-E+ strains (CB6F1-hybrid of C57BL/6 and Balb/c). C57BL/6 mice are H-2b but I-E−, whereas BALB/c are H-2d and I-E+, and therefore their F1 hybrids are H-2b/1-E+ and able to directly present antigen.
Responder 2C splenocytes were harvested, and the cell suspensions were treated with Tris-buffered ammonium chloride to remove RBC. […] On day 3, the MLR cultures were harvested, and analyzed by FACS for CD4 or CD8 levels.
FACS analysis was performed using a modified FACScan (BD Biosciences, Mountain View, Calif.). Fluorescence data were collected during one minute. […]

melting point [°C]	IC50 [1] [nM]	Compound	IC50 [2] [nM]	number of OT2 (resting) cells [3]	number of 2C (stimulated) cells [4]	number of OT1 (resting) cells [5]	number of TEA (stimulated) cells [6]	IL-2 levels in MLR supernatants [7]	percentage of double-positive effector cells [8]
> 250	5500 ± 3.5	Oc1cc(-c2nc(Nc3ccccc3)c3ccccc3n2)cc(O)c1O [Compound 20, 5-(4-(phenylamino)quinazolin-2-yl)benzene-1,2,3-triol]	650 ± 0.49						
> 250	600 ± 0.21	Oc1cc(-c2nc(NCc3ccc(F)c(F)c3)c3ccccc3n2)cc(O)c1O [Compound 31, 5-(4-(3,4-difluorobenzylamino)quinazolin-2-yl)benzene-1,2,3-triol]	280 ± 0.04						
> 250	800 ± 0.28	Oc1cc(-c2nc(Nc3ccc4c(c3)OCO4)c3ccccc3n2)cc(O)c1O [Compound 37, 5-(4-(benzo[d][1,3]dioxol-5-ylamino)quinazolin-2-yl)benzene-1,2,3-triol]	5500 ± 6.36						
> 250	850 ± 0.21	Cc1ccc(Nc2nc(-c3cc(O)c(O)c(O)c3)nc3ccccc23)cc1 [Compound 21, 5-(4-(p-tolylamino)quinazolin-2-yl)benzene-1,2,3-triol]	850 ± 0.21	903	4767	2468	3003	decreased after 72 h	no reduction was observed
> 250	710 ± 0.87	Oc1cc(-c2nc(Nc3ccc4[nH]ncc4c3)c3ccccc3n2)cc(O)c1O [Compound 35, 5-(4-(1H-indazol-5-ylamino)quinazolin-2-yl)benzene-1,2,3-triol]	780 ± 0.67						
> 250	1100 ± 0.14	COc1ccc(Nc2nc(-c3cc(OC)c(OC)c(OC)c3)nc3ccccc23)cc1 [Compound 5, N-(4-methoxyphenyl)-2-(3,4,5-trimethoxyphenyl)quinazolin-4-amine]	500 ± 0.14						
> 250	950 ± 0.07	Oc1cc(-c2nc(NCc3ccccc3)c3ccccc3n2)cc(O)c1O [Compound 29, 5-(4-(benzylamino)quinazolin-2-yl)benzene-1,2,3-triol]	7000 ± 3.5						
